Assay [1] deals with DU145 (prostate cancer). The experiment in a line: Effect of compounds on tumor cell lines (assay of Latham et al.), DU145. Type of assay: cell-based. Conditions: Table 1, DU145 cells, examined 96 hours after treatment, 1 μM to 100 μM in DMSO, read-out: DU 145 potency (IC50). On the procedure: (§1) The effect of the compounds of the invention on tumor cells was determined by the assay described by Latham et al., Oncogene 12:827-837 (1996). Tumor cells K562 (chronic myelogenous leukaemia) or DU145 (prostate cancer) were plated in 12-well dishes at a cell density of 2.5×10^4 cells well. The plated cells were treated 24 hours later with a compound of the invention dissolved in DMSO at multiple concentrations ranging from 1 μM to 100 μM. The plates were examined 96 hours later under an inverted microscope, Olympus CK-2 using an 10× objective, and compound activity was noted by physical observation. When necessary, the total number of viable cells was determined by trypsinizing the wells and counting the number of viable cells, as determined by trypan blue exclusion, using a hemacytometer.
(§2) The representative compounds listed in Tables 1-5 are shown by way of illustration, and are not intended to limit the scope of the invention. The compounds are prepared and tested by methods based on those described above, except that the compound of Table 5 was dissolved in DMSO at multiple concentrations ranging from 0.1 μM to 100 μM

In assay [2] the test system is K562 (chronic myelogenous leukaemia). Nature of the assay: Effect of compounds on tumor cell lines (assay of Latham et al.), K562. The assay is classed as cell-based. Conditions: Table 1, K562 cells, examined 96 hours after treatment, 1 μM to 100 μM in DMSO, read-out: K 562 potency (IC50). The protocol: as §1, §2

pIC50: −log10 of the molar value. Read-outs that look alike come from different tables or passages of the source.

With `O=C(C(=Cc1ccc([N+](=O)[O-])c(O)c1)Sc1c(F)c(F)c(F)c(F)c1F)c1ccc(Br)cc1` [Example 1], the pIC50 (in general, the IC50 on a negative log10 scale, so that one unit is a factor of ten) is 4.60 to 5.00 in assay [1] and 5.00 to 6.00 in assay [2].

For the molecule `O=C(C(=Cc1ccc(O)c([N+](=O)[O-])c1)Sc1c(F)c(F)c(F)c(F)c1F)c1ccc(Br)cc1` [Example 2], the pIC50 in assay [1] and in assay [2] was 4.60 to 5.00 each time.

With `O=C(C(=Cc1cc(Cl)cc(Cl)c1Cl)Sc1ccccc1Br)c1ccc(Cl)cc1` [Example 3], the pIC50 in assay [1] is 4.30 to 4.60; in assay [2], 4.00 to 4.30.

Regarding `O=C(C(=Cc1c(O)cc(O)cc1O)Sc1ccccc1Br)c1ccc(Br)cc1` [Example 4], the negative-log IC50 (pIC50) in assay [1] and in assay [2] was less than 4.00 in each case.

Take `O=C(C(=Cc1c(O)cc(O)cc1O)Sc1ccccc1Br)c1ccc(Cl)cc1` [Example 5]: the pIC50 in assay [1] and in assay [2] was less than 4.00 each time.

As to `O=C(C(=Cc1ccc(O)cc1O)Sc1ccccc1Br)c1ccc(Br)cc1` [Example 6], the pIC50 in assay [1] and in assay [2] was 4.00 to 4.30 in each case.

In the case of `O=C(C(=Cc1ccc(O)cc1O)Sc1ccccc1Br)c1ccc(Cl)cc1` [Example 7], the pIC50 in assay [1] and in assay [2] was 4.00 to 4.30 in each case.

Turning to `O=C(C(=Cc1ccccc1O)Sc1ccccc1Br)c1ccc(Br)cc1` [Example 8], the pIC50 in assay [1] and in assay [2] was 4.00 to 4.30 throughout.

Regarding `O=C(C(=Cc1ccc(Br)cc1)Sc1ccccc1Br)c1ccc(Br)cc1` [Example 9], the negative-log IC50 (pIC50) in assay [1] and in assay [2] was 5.00 to 6.00 throughout.

On to `O=C(C(=Cc1ccc(O)c([N+](=O)[O-])c1)Sc1ccccc1Br)c1ccc(Br)cc1` [Example 10], for which the pIC50 in assay [1] was 5.00 to 6.00; in assay [2], 4.60 to 5.00.

As to `O=C(C(=Cc1ccc(O)c([N+](=O)[O-])c1)Sc1ccccc1Br)c1ccc(Cl)cc1` [Example 11], the pIC50 in assay [1] was 4.30 to 4.60; in assay [2] it was 4.60 to 5.00.

As for `CN(C)c1ccc(C=C(Sc2ccccc2Br)C(=O)c2ccc(Br)cc2)cc1` [Example 12], the pIC50 in assay [1] and in assay [2] was less than 4.00 throughout.

As for `O=C(C(=Cc1c(O)cc(O)cc1O)Sc1ccc(Br)cc1)c1ccc(Cl)cc1` [Example 13], the pIC50 in assay [1] was 4.30 to 4.60; in assay [2] it was 4.00 to 4.30.

Regarding `COc1cc(OC)c(C=C(Sc2ccc(Br)cc2)C(=O)c2ccc(Cl)cc2)c(OC)c1` [Example 14], the pIC50 in assay [1] and in assay [2] was 4.00 to 4.30 in each case.

As for `O=C(/C(=C\c1ccc(Cl)cc1Cl)Sc1ccc(Br)cc1)c1ccc(Br)cc1` [Example 15, (E)-1-(4-Bromophenyl)-2-(4-bromophenylthio)-3-(2,4-dichlorophenyl)-prop-2-en-1-one], the negative logarithm of the IC50 (pIC50) was 5.00 to 6.00 in assay [1] (Homo sapiens, DU-145) and 5.00 to 6.00 in assay [2] (Homo sapiens).

As for `O=C(C(=Cc1ccc(O)cc1O)Sc1ccc(Br)cc1)c1ccc(Cl)cc1` [Example 16], the pIC50 in assay [1] was 4.00 to 4.30; in assay [2], 4.30 to 4.60.

For the molecule `O=C(C(=Cc1ccc(F)cc1F)Sc1ccc(Br)cc1)c1ccc(Br)cc1` [Example 17], the negative logarithm of the IC50 (pIC50) in assay [1] and in assay [2] was 5.00 to 6.00 each time.

As to `O=C(C(=Cc1ccc(F)cc1F)Sc1ccc(Br)cc1)c1ccc(Cl)cc1` [Example 18], the pIC50 in assay [1] and in assay [2] was 5.00 to 6.00 each time.

For the molecule `Cc1ccc(C)c(C=C(Sc2ccc(Br)cc2)C(=O)c2ccc(Cl)cc2)c1` [Example 19], the pIC50 in assay [1] and in assay [2] was 4.60 to 5.00 each time.

On to `Nc1c(Br)cc(Br)cc1C=C(Sc1ccc(Br)cc1)C(=O)c1ccc(Br)cc1` [Example 20], for which the negative logarithm of the IC50 (pIC50) in assay [1] and in assay [2] was less than 4.00 each time.

Turning to `O=C(C(=Cc1ccccc1OCc1ccccc1)Sc1ccc(Br)cc1)c1ccc(Cl)cc1` [Example 21], the negative-log IC50 (pIC50) in assay [1] and in assay [2] was 4.60 to 5.00 each time.

For `O=C(C(=Cc1ccc(F)cc1Cl)Sc1ccc(Br)cc1)c1ccc(Br)cc1` [Example 22], the pIC50 in assay [1] and in assay [2] was 5.00 to 6.00 throughout.

In the case of `COc1ccc(C=C(Sc2ccc(Br)cc2)C(=O)c2ccc(Br)cc2)c(F)c1` [Example 23], the pIC50 is 4.60 to 5.00 in assay [1] and 5.00 to 6.00 in assay [2].

These data come from patent US8808702B2, “Sulfide, sulfoxide and sulfone chalcone analogues, derivatives thereof and therapeutic uses thereof” (Temple University-of the Commonwealth System of Higher …, priority 2006, dated 2014).
